Measured values reported in patent publication US10821084B2, “Dihydromyricetin compositions” (REMY BIOSCIENCES, INC., priority 2018, dated 2020).

What was measured:
[1] = patch measuring 20 cm^2, PIB adhesive and 10% CBD; cited from earlier work
[2] = In vitro transdermal flux of cannabinoids from monolithic patches, Franz Diffusion Cell method; assay type: in vitro ADME, human; conditions: for stimulation of cumulative CBD flux versus no dihydromyricetin: 15% CBD patch
Text: Transdermal flux of cannabinoids can be measured In Vitro through human cadaver epidermis using Franz Diffusion Cell Method. Samples of 300 microliters can be taken of the receiving solution and analyzed by HPLC for amount ofcannabinoid substance that passed through the epidermis.
Flux is preferably measured using human cadaver skin with a Franz Diffusion Cell (see, Kristof (2017) Feasibility of transdermal delivery of Cyclosporine A using plasma discharges. Biointerphases. 12:02B402). Flux can be measured where the temperature of the Franz Diffusion Cell (and solutions inside the Franz Diffusion Cell) are held constant at about 17 degrees C., about 20 degrees C., about 23 degrees C. (“room temperature”), about 26 degrees C., about 30 degrees C., about 33 degrees C., about 37 degrees C. (mammalian body temperature), about 40 degrees C., and so on.
For each figure, the number of hours that flux was allowed to occur was twentyfour hours (24 hours). The data for each figure used a monolithic patch. Composition of the patch: PIB adhesive with 15% of CBD or 8% THC. Patch construction was adhesive layer attached to a backing polyethylene foam film. No additional overlays were used. Experiments were done using Franz Diffusion Cells using human cadaver skin.

C=C(C)[C@@H]1CCC(C)=C[C@H]1c1c(O)cc(CCCCC)cc1O [CBD, cannabidiol]
daily systemic dose of CBD deliverable [1]: about 5 mg | control net flux of CBD ([2]; control monolithic patch without any dihydromyricetin, 15% CBD, over a period of 24 hours): about 155 micrograms CBD per square centimeter of skin | cumulative transdermal flux of CBD ([2]; monolithic PIB patch, 15% CBD, 0% dihydromyricetin, 24 hours, FIG. 2 first bar): about 155 micrograms/cm^2 | cumulative transdermal flux of CBD ([2]; monolithic PIB patch, 15% CBD, 3% dihydromyricetin, 24 hours, FIG. 2 second bar): about 195 micrograms/cm^2 | cumulative transdermal flux of CBD ([2]; monolithic PIB patch, 15% CBD, 5% dihydromyricetin, 24 hours, FIG. 2 third bar): about 230 micrograms/cm^2 | net flux of CBD ([2]; monolithic PIB patch, 15% CBD, with dihydromyricetin, over a period of 24 hours): at least 195 micrograms CBD per square centimeter of skin

CCCCCc1cc(O)c2c(c1)OC(C)(C)[C@@H]1CCC(C)=C[C@@H]21 [THC, tetrahydrocannabinol]
control net flux of THC ([2]; control monolithic patch without any dihydromyricetin, 8% THC, over a period of 24 hours): about 90 micrograms THC per square centimeter of skin | cumulative transdermal flux of THC ([2]; monolithic PIB patch, 8% THC, 0.5% dihydromyricetin, 24 hours, FIG. 1 third bar): about 145 micrograms/cm^2 | cumulative transdermal flux of THC ([2]; monolithic PIB patch, 8% THC, 3% oleic acid, 24 hours, FIG. 1 second bar): about 110 micrograms/cm^2 | cumulative transdermal flux of THC ([2]; monolithic PIB patch, 8% THC, no enhancer, 24 hours, FIG. 1 first bar): about 90 micrograms/cm^2 | net flux of THC ([2]; monolithic PIB patch, 8% THC, with dihydromyricetin, over a period of 24 hours): at least 145 micrograms THC per square centimeter of skin

O=C1c2c(O)cc(O)cc2O[C@H](c2cc(O)c(O)c(O)c2)[C@H]1O [dihydromyricetin]
stimulation of cumulative THC flux versus no dihydromyricetin ([2]; 8% THC patch, 5% dihydromyricetin (third histogram bar), 24 hours): about 61% | stimulation of cumulative CBD flux versus no dihydromyricetin ([2]; 3% dihydromyricetin, 24 hours): about 25% | stimulation of cumulative CBD flux versus no dihydromyricetin ([2]; 5% dihydromyricetin, 24 hours): about 48% | increase of CBD flux through skin (factor) ([2]; dermal patch formulation that includes CBD, human cadaver skin): three-fold
